Series [1] concerns human umbilical vein endothelial cells (HUVECs). Briefly: HUVEC flow cytometry and tubulin staining. In kind it is cell-based. Particulars: 30 nM, 16 hours. The method, then: (a) Flow cytometry analysis. HUVECs were treated with 30 nM of stilbene 4a for 16 hours followed by staining with PI and subjected to flow cytometry analysis. A large subG0/1 population, representing apoptotic cells, appeared along with reverse of the G1/G2 ratio. (b) Immunofluorescent staining of the HUVECs with antibody against tubulin. Nuclei were counter-stained with DAPI. Stilbene 4a disrupted microtubules at a concentration of 30 nM or higher. Stilbene 4c disrupted microtubules at 100 nM.
In order to establish that stilbenes suppress tumor perfusion by damaging tumor endothelial cells, we first incubated human vascular endothelial cells (HUVECs) with various concentrations of stilbenes in vitro. After 24 hours of incubation, cells were processed for flow cytometry analysis with propidium iodide staining. Cells were also fixed with 2% paraformaldehyde and stained with anti-tubulin antibody to examine tubulin disruption and with DAPI to analyze nuclear fragmentation.
A general note: In flow cytometry, cells or beads pass a laser one at a time.

The next series has as its system Tubulin (>99% pure). Briefly: tubulin polymerization assay (OD 340 nm). It counts as biochemical. To be noted: OD340 nm; nocodazole and paclitaxel 10 μM.
Series [2] deals with MDA-MB231 breast cancer cells. The series is described as follows: cell cycle analysis, MDA-MB231. It counts as cell-based. Particulars: 16 hours. Here is the method:
(§1) Cells were treated with various concentrations of stilbene 4a or CA4 for 16 hours followed by PI staining and FACscan analysis. […] A unique feature of stilbene 4a was noted when cells were treated with 30 nM.
(§2) Due to the structural similarity between stilbene 4a and CA4, we investigated the difference in the biological activity of these two compounds in MDA-MB231 breast cancer cells and their Chk2−/− derivatives. […] MDA-MB231 cells were treated with 10 nM stilbene 4a or 1 nM CA4. […] However, a difference in cell cycle change was observed following treatment with 30 nM of stilbene 4a versus 3 nM of CA4. […] This was also the case for cells treated with 100 nM stilbene 4a. A significant subG1/0 population was also noted. […] One possible effect could be a DNA damage response, which is a common mechanism of multiple chemotherapeutic agents but not one of pure microtubule-interfering agents such a paclitaxel or vincristine. […] We then obtained conditional Chk1−/− and Chk2−/− cells, which were derived from the same MDA-MB231 cells for the same flow cytometry analysis. […] In contrast, Chk2−/− cells were more sensitive to stilbene 4a. […] This mechanism is not obvious in higher drug concentrations at which the G2 arrest from microtubule interference is dominant. Therefore, in addition to their microtubule interfering effect, stilbenes have another mechanism to induce cell death. Thus, the use of a Chk2 inhibitor in combination with stilbenes may be a viable approach to enhancing the beneficial therapeutic effects of stilbenes.

For series [3], the system named is UCI101 ovarian cancer cells (xenograft). Briefly: UCI101 xenograft in nude mice. To be noted: mouse, in vivo. It counts as in vivo. The method, then: (a) In vitro sensitivity of UCI101 cells toward three potential stilbene prodrugs, 5a-c, was tested in 96-well plates using Alamar Blue™ assays to determine cell growth inhibition. […] (b) 5b induces cell cycle change and apoptosis in UCI101 cells. Cells were incubated with 5b at 1, 3, 10 μM for 16 hours followed by PI staining and flow cytometry analysis. A subG0/1 population, representing apoptotic cells, appeared along with a decrease of the G1/G2 ratio after cells were treated with 3 μM 5b. Higher concentration (10 μM) of 5b completely killed cells, as was the case with stilbene 4a at […]. (c) Cells treated with stilbene 4a and 5b were stained with phospho-histone 3B, a mitotic marker. The positive signals of phospho-histone 3B were shown in green and nuclei were stained with DAPI in blue. […] (d) In vivo efficacy of 5b compared with stilbene 4a. Nude mice were injected with UCI101 ovarian cancer cells and treated with 7 doses of 5b,c or stilbene 4a every 2-3 days. Tumor volume was calculated and plotted against days.
We next tested whether 5b could be converted into stilbene 4a in circulation. […] Blood was collected at 20, 60 and 240 min after injection for spot check of stilbene 4a level in serum. […] The in vivo efficacy of 5b and 5c was compared to stilbene 4a in a pilot study using 5 mice in each group.

Series [4] relates to UCI101 ovarian cancer cells. Briefly: Western blot of signal transduction events, UCI101. In kind it is cell-based. The essentials:
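UCI101 cells exposed to 0.1 μM compound for 0, 4, 8, 16 and 36 h, then harvested and analysed by Western blot. Probes covered G2-M regulators Cdc2, Cdc25c and BubR1, plus Akt phosphorylation.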
For orientation: A western blot detects proteins with antibodies after separation by electrophoresis.

The next series relates to Chk2−/− cells. The series is described as follows: cell cycle analysis, Chk2-/- MDA-MB231 derivative. In kind it is cell-based. Here is the method: as §1, §2

The structures appear in SMILES notation.

The values that follow come from patent US7781580B2, “Stilbene derivatives as new cancer therapeutic agents” (Virginia Commonwealth University, priority 2007, dated 2010).

For `COc1cc(/C=C\c2ccc(OC)c(N)c2)cc(OC)c1` [4a, (Z)-5-[2-(3,5-Dimethoxy-phenyl)-vinyl]-2-methoxy-phenylamine], in series [1], the “apoptosis of HUVECs (flow cytometry)” value is reported as “induced a significant apoptotic population of subG0/1 cells”. Besides, the “effect on tubulin polymerization” value with Tubulin (>99% pure) is given as “suppressed polymerization in a dose-dependent manner”. The “cell cycle change at 30 nM” value in series [2] (30 nM) is listed as “induced some degree of G2 arrest, but the ratio of G1/G2 did not reverse”. The “cell cycle change at 10 nM stilbene 4a or 1 nM CA4” value in series [2] is given as “No change was observed”. The mouse weight result in series [3] is listed as “did not show any significant change”. In addition, the “phosphorylation of Stat3” value in series [4] (0.1 μM) is “transient increase in phosphorylation at 4 and 8 hours”. Also, the “phosphorylation of Cdc2 at Tyr15” value in series [4] (0.1 μM, 16 hours) was “decreased dramatically”. Besides, in series [4] (36 hours), the “phosphorylation of Chk1” value is “increased uniquely at 36 hours”. In addition, the “cell cycle change at 10 nM” value in the series with Chk2−/− cells (10 nM) is reported as “a significant subG1/0 population developed without G2 arrest”. Also, the “change of effective concentration versus MDA-MB231” value with Chk2−/− cells (16 hours) is “decreased by three fold”.
